The record followed here is US8075922B2, “Method of co-infusing a deoxygenated hemoglobin containing blood substitute and inorganic nitrite” (Montana State University-Bozeman, priority 2002, dated 2011).

In this data set the test system is human patient. Conditions: sodium nitrite in phosphate buffered saline infused at 1 micromole per minute, begun before red blood cell transfusion.

As for `O=NO` [sodium nitrite], the “adverse effect of red blood cell transfusion” value is “without adverse effect”.
